Data published in the supplement of paper PMC8671470.
± gives the standard deviation of the averaged measurements.

Columns and labels:
HL-60 [1] = test: cell viability (% survival relative to DMSO control); higher = less cytotoxic; settings: 72 h
Method in brief: (§1)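 For each screen, HL-60 cells in RPMI 1640 with 10% FBS carried either DMSO or 100 nM of one of three metabolic inhibitors while the full library was applied at five tenfold concentrations, 1–10,000 nM, in duplicate. Plates were 384-well and were kept 72 h at 37 °C, 5% CO2. Viability, measured by CellTiter-Glo, was normalised to wells with DMSO and with 10 μM proteasome inhibitor. Where area under the curve appears, it was fitted by four-parameter log-logistic models in drc and PharmacoGx.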

HL-60 [2] = test: area under dose-response curve (viability, 1 nM-10 uM) (fraction (0-1)); higher = more sensitive; settings: 72 h
Method in brief: as §1

[3] = 0.001 µM, co-treatment: AZD3965 100 nM
[4] = 0.001 µM, co-treatment: DMSO vehicle
[5] = 0.001 µM, co-treatment: GSK2194069 100 nM
[6] = 0.001 µM, co-treatment: pictilisib 100 nM
[7] = 0.01 µM, co-treatment: AZD3965 100 nM
[8] = 0.01 µM, co-treatment: DMSO vehicle
[9] = 0.01 µM, co-treatment: GSK2194069 100 nM
[10] = 0.01 µM, co-treatment: pictilisib 100 nM
[11] = 0.1 µM, co-treatment: AZD3965 100 nM
[12] = 0.1 µM, co-treatment: DMSO vehicle
[13] = 0.1 µM, co-treatment: GSK2194069 100 nM
[14] = 0.1 µM, co-treatment: pictilisib 100 nM
[15] = 1 µM, co-treatment: AZD3965 100 nM
[16] = 1 µM, co-treatment: DMSO vehicle
[17] = 1 µM, co-treatment: GSK2194069 100 nM
[18] = 1 µM, co-treatment: pictilisib 100 nM
[19] = 10 µM, co-treatment: AZD3965 100 nM
[20] = 10 µM, co-treatment: DMSO vehicle
[21] = 10 µM, co-treatment: GSK2194069 100 nM
[22] = 10 µM, co-treatment: pictilisib 100 nM
[23] = co-treatment: GSK2194069 100 nM
[24] = co-treatment: pictilisib 100 nM

SMILES	cell viability (HL-60 [1]; [3]) [%]	cell viability (HL-60 [1]; [4]) [%]	cell viability (HL-60 [1]; [5]) [%]	cell viability (HL-60 [1]; [6]) [%]	cell viability (HL-60 [1]; [7]) [%]	cell viability (HL-60 [1]; [8]) [%]	cell viability (HL-60 [1]; [9]) [%]	cell viability (HL-60 [1]; [10]) [%]	cell viability (HL-60 [1]; [11]) [%]	cell viability (HL-60 [1]; [12]) [%]	cell viability (HL-60 [1]; [13]) [%]	cell viability (HL-60 [1]; [14]) [%]	cell viability (HL-60 [1]; [15]) [%]	cell viability (HL-60 [1]; [16]) [%]	cell viability (HL-60 [1]; [17]) [%]	cell viability (HL-60 [1]; [18]) [%]	cell viability (HL-60 [1]; [19]) [%]	cell viability (HL-60 [1]; [20]) [%]	cell viability (HL-60 [1]; [21]) [%]	cell viability (HL-60 [1]; [22]) [%]	area under dose-response curve (HL-60 [2]; co-treatment: AZD3965 100 nM)	area under dose-response curve (HL-60 [2]; co-treatment: DMSO vehicle)	area under dose-response curve (HL-60 [2]; [23])	area under dose-response curve (HL-60 [2]; [24])
CCCCC/C=C\C/C=C\C/C=C\C/C=C\CCCC(=O)C(F)(F)F [Arachidonyl trifluoromethyl ketone]	101 ± 1.4	96.7 ± 2.5	88.4 ± 31	99.6 ± 20	104 ± 4.1	102 ± 8.7	101 ± 2.3	104 ± 7	101 ± 5.3	101 ± 3.3	108 ± 11	102 ± 9.9	91.8 ± 20	101 ± 7.4	89.7 ± 8.5	81.4 ± 45	98.3 ± 6.5	101 ± 1.2	56.72 ± 0.35	96.6 ± 9.5	< 0.0301	< 0.0301	0.0624	< 0.0301
NS(=O)(=O)c1ccc(NC(=O)Cc2ccccc2)cc1 [4-(2-Phenylacetamido)Benzenesulfonamide]	97.2 ± 2.5	92.5 ± 3.3	104 ± 13	101 ± 1.3	100 ± 1.7	94.4 ± 3	99.5 ± 13	85.2 ± 6.6	99.29 ± 0.26	100 ± 3.6	99.14 ± 0.66	94 ± 7	101 ± 3.1	100 ± 2.9	99.4 ± 2.3	97.6 ± 1.9	99.6 ± 2.4	98.28 ± 0.14	103 ± 1.3	92.9 ± 7.5	< 0.0301	< 0.0301	< 0.0301	< 0.0301
OCCN(CCO)c1nc(N2CCCCC2)c2nc(N(CCO)CCO)nc(N3CCCCC3)c2n1 [Dipyridamole]	95.7 ± 8	101 ± 5	94.2 ± 5.8	90.6 ± 21	98.9 ± 3.2	97.54 ± 0.47	94.44 ± 0.53	101 ± 8.1	100.7 ± 0.65	107 ± 0.53	106 ± 3.8	105.3 ± 0.23	102 ± 6.6	100 ± 7	82 ± 9	99.7 ± 18	106 ± 4.1	106 ± 3.3	64 ± 5.3	97.4 ± 1.1	< 0.0301	< 0.0301	–	< 0.0301
OC[C@H]1OC(O)C[C@@H](O)[C@@H]1O (stereo partly drawn) [2-deoxyglucose]	107 ± 5.6	104 ± 3	102 ± 4.2	102 ± 5.7	110 ± 2.7	101 ± 8.1	107 ± 8	109.7 ± 0.56	103 ± 3.9	99.45 ± 0.1	102 ± 5.5	99.6 ± 1.3	103.1 ± 0.65	103.5 ± 0.84	101 ± 5	104 ± 1.2	103 ± 3.5	97.27 ± 0.73	104 ± 6.3	108 ± 14	< 0.0301	< 0.0301	< 0.0301	< 0.0301
Cl.OC[C@H]1NC[C@H](O)[C@@H](O)[C@H]1O [Migalastat]	106 ± 1.8	103 ± 1.2	106 ± 1.1	102 ± 4.4	108 ± 2.8	103 ± 8.1	110 ± 3.4	112 ± 3.5	102.1 ± 0.12	96.5 ± 2.1	104 ± 6	99.4 ± 5.2	106 ± 2.9	100 ± 1.6	103 ± 8.2	106 ± 5.2	102 ± 6.1	95.4 ± 4.5	94.79 ± 0.12	94.1 ± 11	< 0.0301	< 0.0301	< 0.0301	< 0.0301
N[C@@H](CCC(=O)N[C@@H](CS)C(=O)NCC(=O)O)C(=O)O [Glutathione]	99.7 ± 0.66	101 ± 1.5	96.2 ± 3.6	96.6 ± 2.5	98.74 ± 0.26	99.78 ± 0.85	100.3 ± 0.86	96.4 ± 9.4	99.1 ± 1.7	99.69 ± 0.58	95.1 ± 7.2	86.3 ± 15	102 ± 6.2	98.63 ± 0.24	101 ± 11	96.3 ± 9.8	99.8 ± 1.6	102.2 ± 0.32	100.27 ± 0.053	106 ± 4.5	< 0.0301	< 0.0301	< 0.0301	< 0.0301
O=C(Oc1ccc([N+](=O)[O-])cc1)N1CCC(C(O)(c2ccc3c(c2)OCO3)c2ccc3c(c2)OCO3)CC1 [JZL184]	110 ± 11	100 ± 1.5	103 ± 3.2	83.1 ± 35	92.8 ± 12	93.8 ± 6	99.6 ± 1	89.4 ± 14	104 ± 2.5	100.9 ± 0.17	99.2 ± 8.9	97.2 ± 3	98.7 ± 2.8	101 ± 2.3	101 ± 4.3	95.5 ± 2.7	105.1 ± 0.87	97.3 ± 2.7	107 ± 13	99 ± 11	< 0.0301	< 0.0301	< 0.0301	< 0.0301
C=C1C(=O)O[C@H](CCCCCCCC)[C@H]1C(=O)O [C75]	108 ± 5.4	105 ± 8.6	96 ± 22	103 ± 29	91.5 ± 7.9	99.5 ± 1.4	88.2 ± 8.7	90.9 ± 20	107 ± 2.8	101.8 ± 0.69	102 ± 4.4	105 ± 3.7	97.8 ± 1.8	102 ± 5.6	100 ± 1.4	103 ± 4.5	102 ± 7.2	102 ± 4.7	111 ± 4	98.9 ± 3.6	< 0.0301	< 0.0301	< 0.0301	< 0.0301
Cn1cc(C[C@@H](N)C(=O)O)c2ccccc21 [Indoximod]	89.7 ± 8	100 ± 5.2	96.5 ± 4.6	110 ± 8.8	96.1 ± 6.9	98.7 ± 1.6	88.55 ± 0.44	63.4 ± 34	104 ± 4.9	112 ± 11	115 ± 26	120 ± 22	106 ± 7.9	110 ± 9.6	113 ± 31	123 ± 29	101 ± 2.1	96.7 ± 1.3	86.2 ± 27	93.9 ± 19	< 0.0301	< 0.0301	< 0.0301	< 0.0301
CCCCCCCCCCCCCCOc1ccc(C(=O)O)o1 [TOFA]	96.4 ± 6.9	98.8 ± 0.47	81.3 ± 24	80.5 ± 24	101 ± 5.1	102 ± 3.9	96.3 ± 8.4	100 ± 1.6	104 ± 9.2	98.8 ± 3	84.6 ± 29	94.5 ± 3.8	97.5 ± 1.2	98.5 ± 2.7	95.9 ± 13	107 ± 7.6	100 ± 1.9	97.592 ± 0.042	94.01 ± 0.71	2.06 ± 0.22	< 0.0301	< 0.0301	< 0.0301	0.114
CC(C)(CCCCCCCCCCC(C)(C)CC(=O)O)CC(=O)O [MEDICA 16]	100 ± 4.3	98.9 ± 3.6	101.1 ± 0.91	97.8 ± 6.5	104 ± 9.4	98.3 ± 3.4	87.2 ± 19	100 ± 6.5	105 ± 13	103 ± 3.3	99 ± 5.8	93.9 ± 4	101 ± 8.2	101 ± 1.5	102 ± 2.8	90 ± 2.5	99.5 ± 3.1	98 ± 1.4	93.201 ± 0.073	99.96 ± 0.98	< 0.0301	< 0.0301	< 0.0301	< 0.0301
CNC(=C[N+](=O)[O-])NCCSCc1ccc(CN(C)C)o1 [Ranitidine]	103 ± 2.5	104 ± 0.67	94.3 ± 10	95.9 ± 16	102 ± 2.5	87.7 ± 16	89.5 ± 1.4	70.3 ± 19	99.6 ± 4.2	105.91 ± 0.021	108 ± 12	98.5 ± 5.1	107 ± 8.7	106.4 ± 0.2	106 ± 12	110 ± 11	100 ± 3	96.1 ± 5.9	102 ± 4.1	96.9 ± 4.7	< 0.0301	< 0.0301	< 0.0301	< 0.0301
O=C(C(=O)c1ccc(Br)cc1)c1ccc(Br)cc1 [4,4'-Dibromobenzil]	105 ± 1.5	102 ± 7.3	105 ± 3	109 ± 6.4	105 ± 4.3	100 ± 2.6	107.3 ± 0.49	105 ± 1.2	99.5 ± 2.2	99.8 ± 1.4	105.4 ± 0.27	95.5 ± 13	94.7 ± 14	96.7 ± 0.99	98.1 ± 5.3	98.3 ± 17	102 ± 3.9	101 ± 1.3	96.28 ± 0.88	101.7 ± 0.5	< 0.0301	< 0.0301	< 0.0301	< 0.0301
CC(=O)N1CCN(c2ccc(OC[C@@H]3CO[C@@](Cn4ccnc4)(c4ccc(Cl)cc4Cl)O3)cc2)CC1 (racemic) [Ketoconazole]	98.3 ± 5	99.7 ± 1.4	100 ± 3.6	88.8 ± 17	95.6 ± 8.3	96.9 ± 3.1	78.8 ± 21	95.03 ± 0.18	105 ± 4.2	104 ± 3	109 ± 12	106 ± 18	109 ± 11	104 ± 0.52	110 ± 14	111 ± 10	96.1 ± 8.6	102.6 ± 0.17	95.6 ± 2.4	102 ± 1.4	< 0.0301	< 0.0301	< 0.0301	< 0.0301
NCc1ccc(-c2cccnc2)s1 [(5-Pyrid-3-YLTHIEN-2-YL)METHYLAMINE]	103 ± 3.5	103 ± 1.9	105 ± 2.2	104 ± 11	78 ± 37	101 ± 5.8	94.3 ± 13	91.2 ± 27	114 ± 1.4	109 ± 2.6	107.2 ± 0.96	113 ± 2.4	97 ± 1	92.7 ± 13	95.1 ± 2.1	92.2 ± 5.2	101 ± 1.1	98.43 ± 0.59	96.7 ± 4.5	96.9 ± 2.8	< 0.0301	< 0.0301	< 0.0301	< 0.0301
Cc1cc(O)c2c(c1)C(=O)c1cc(O)cc(O)c1C2=O [Emodin]	101 ± 3.6	102 ± 3.5	92.5 ± 2.3	96.6 ± 2.1	97.9 ± 3.5	100 ± 1.2	76.2 ± 16	107 ± 18	101 ± 2.3	101 ± 3.1	94 ± 6.6	97.4 ± 1.4	97.585 ± 0.0084	102.6 ± 0.14	74.7 ± 24	89.4 ± 7.9	98.7 ± 2.1	103.5 ± 0.92	96.7 ± 1.6	97.6 ± 2.7	< 0.0301	< 0.0301	< 0.0301	< 0.0301
